Data as given in patent publication US11358952B2, “Substituted 4-aminoisoindoline-1,3-dione compounds, compositions thereof, and methods of treatment therewith” (Celgene Corporation, priority 2018, dated 2022).

The molecules below were run on SU-DHL-4 cell line (assay: SU-DHL-4 cell proliferation assay (Cell Titer-Glo viability)). Details: Homo sapiens; cell viability IC50 activity level, DLBCL cell line SU-DHL-4, 120 hours post-treatment; read-out: SU-DHL-4 Act.
Format: cell-based
Method in brief: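 SU-DHL-4 cells (500/well, RPMI-1640 + 10% FBS) exposed to 20-point compound dilutions (0.5 nM–10 μM, 0.1% DMSO) for 120 h at 37°C, 5% CO2. Viability measured by Cell Titer-Glo luminescence at t0 and at 120 h. IC50 is the concentration giving 50% of DMSO control, from a four-parameter logistic fit.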

IC50	Structure (SMILES)
< 200 nM	CC1(C)CN(c2ccc(C#N)cn2)CCN1Cc1ccc(CNc2cccc3c2C(=O)N(C2CCC(=O)NC2=O)C3=O)cc1 (centres unmarked) [Cpd 84, 6-(4-(4-((2-(2,6-dioxopiperidin-3-yl)-1,3-dioxoisoindolin-4-ylamino)methyl)benzyl)-3,3-dimethylpiperazin-1-yl)nicotinonitrile]
< 200 nM	CC1(C)CN(c2ccc(C#N)nc2)CCN1Cc1ccc(CNc2cccc3c2C(=O)N(C2CCC(=O)NC2=O)C3=O)cc1 (centres unmarked) [Cpd 85, 5-(4-(4-((2-(2,6-dioxopiperidin-3-yl)-1,3-dioxoisoindolin-4-ylamino)methyl)benzyl)-3,3-dimethylpiperazin-1-yl)picolinonitrile]
501 to 750 nM	CCC1(O)CCN(Cc2ccc(CNc3cccc4c3C(=O)N(C3CCC(=O)NC3=O)C4=O)cc2)CC1 (centres unmarked) [Cpd 88, 2-(2,6-dioxopiperidin-3-yl)-4-(4-((4-ethyl-4-hydroxypiperidin-1-yl)methyl)benzylamino)isoindoline-1,3-dione]
< 200 nM	NC(=O)c1ccc(N2CCN(Cc3ccc(CNc4cccc5c4C(=O)N([C@@H]4CCC(=O)NC4=O)C5=O)cc3)CC2)cn1 [Cpd 91, (R)-5-(4-(4-((2-(2,6-dioxopiperidin-3-yl)-1,3-dioxoisoindolin-4-ylamino)methyl)benzyl)piperazin-1-yl)picolinamide]
< 200 nM	CC(C)(C)N1CCN(Cc2ccc(CNc3cccc4c3C(=O)N(C3CCC(=O)NC3=O)C4=O)cc2F)CC1 (centres unmarked) [Cpd 93, 4-(4-((4-tert-butylpiperazin-1-yl)methyl)-3-fluorobenzylamino)-2-(2,6-dioxopiperidin-3-yl)isoindoline-1,3-dione]
< 200 nM	CC(C)(C)C1CCN(Cc2ccc(CNc3cccc4c3C(=O)N(C3CCC(=O)NC3=O)C4=O)c(F)c2)CC1 (centres unmarked) [Cpd 94, 4-(4-((4-tert-butylpiperidin-1-yl)methyl)-2-fluorobenzylamino)-2-(2,6-dioxopiperidin-3-yl)isoindoline-1,3-dione]
< 200 nM	Cc1cc(CN2CCC(C(C)(C)C)CC2)ccc1CNc1cccc2c1C(=O)N(C1CCC(=O)NC1=O)C2=O (centres unmarked) [Cpd 96, 4-(4-((4-tert-butylpiperidin-1-yl)methyl)-2-methylbenzylamino)-2-(2,6-dioxopiperidin-3-yl)isoindoline-1,3-dione]
501 to 750 nM	Cc1cc(CN2CCN(C(C)(C)C)CC2)ccc1CNc1cccc2c1C(=O)N(C1CCC(=O)NC1=O)C2=O (centres unmarked) [Cpd 97, 4-(4-((4-tert-butylpiperazin-1-yl)methyl)-2-methylbenzylamino)-2-(2,6-dioxopiperidin-3-yl)isoindolline-1,3-dione]
< 200 nM	CC(C)C1CCN(Cc2ccc(CNc3cccc4c3C(=O)N(C3CCC(=O)NC3=O)C4=O)cc2F)CC1 (centres unmarked) [Cpd 99, 2-(2,6-dioxopiperidin-3-yl)-4-(3-fluoro-4-((4-isopropylpiperidin-1-yl)methyl)benzylamino)isoindoline-1,3-dione]
200 to 500 nM	Cc1cc(CN2CCC(C(C)C)CC2)ccc1CNc1cccc2c1C(=O)N(C1CCC(=O)NC1=O)C2=O (centres unmarked) [Cpd 100, 2-(2,6-dioxopiperidin-3-yl)-4-(4-((4-isopropylpiperidin-1-yl)methyl)-2-methylbenzylamino)isoindoline-1,3-dione]
< 200 nM	N#Cc1ccc(C2CN(Cc3ccc(CNc4cccc5c4C(=O)N(C4CCC(=O)NC4=O)C5=O)cc3F)C2)cc1 (centres unmarked) [Cpd 102, 4-(1-(4-((2-(2,6-dioxopiperidin-3-yl)-1,3-dioxoisoindolin-4-ylamino)methyl)-2-fluorobenzyl)azetidin-3-yl)benzonitrile]
< 200 nM	N#Cc1ccc(C2CN(Cc3ccc(CNc4cccc5c4C(=O)N(C4CCC(=O)NC4=O)C5=O)c(F)c3)C2)cc1 (centres unmarked) [Cpd 104, 4-(1-(4-((2-(2,6-dioxopiperidin-3-yl)-1,3-dioxoisoindolin-4-ylamino)methyl)-3-fluorobenzyl)azetidin-3-yl)benzonitrile]
< 200 nM	Cc1cc(CN2CC(c3ccc(C#N)cc3)C2)ccc1CNc1cccc2c1C(=O)N(C1CCC(=O)NC1=O)C2=O (centres unmarked) [Cpd 105, 4-(1-(4-((2-(2,6-dioxopiperidin-3-yl)-1,3-dioxoisoindoliln-4-ylamino)methyl)-3-methylbenzyl)azetidin-3-yl)benzonitrile]
200 to 500 nM	O=C1CCC(N2C(=O)c3cccc(NCc4ccc(CN5CCC(n6cccn6)CC5)c(F)c4)c3C2=O)C(=O)N1 (centres unmarked) [Cpd 106, 4-(4-((4-(1H-pyrazol-1-yl)piperidin-1-yl)methyl)-3-fluorobenzylamino)-2-(2,6-dioxopiperidin-3-yl)isoindoline-1,3-dione]

Second part, the molecule before the results:

Structure (SMILES)	IC50
CC1(C)CN(c2ccc(C(N)=O)nc2)CCN1Cc1ccc(CNc2cccc3c2C(=O)N(C2CCC(=O)NC2=O)C3=O)cc1 (centres unmarked) [Cpd 86, 5-(4-(4-((2-(2,6-dioxopiperidin-3-yl)-1,3-dioxoisoindolin-4-ylamino)methyl)benzyl)-3,3-dimethylpiperazin-1-yl)picolinamide]	< 200 nM
Cc1cc(CNc2cccc3c2C(=O)N(C2CCC(=O)NC2=O)C3=O)ccc1CN1CCC(OC(C)(C)C)CC1 (centres unmarked) [Cpd 87, 4-(4-((4-tert-butoxypiperidin-1-yl)methyl)-3-methylbenzylamino)-2-(2,6-dioxopiperidin-3-yl)isoindoline-1,3-dione]	< 200 nM
CCOC1(C)CCN(Cc2ccc(CNc3cccc4c3C(=O)N(C3CCC(=O)NC3=O)C4=O)cc2)CC1 (centres unmarked) [Cpd 89, 2-(2,6-dioxopiperidin-3-yl)-4-(4-((4-ethoxy-4-methylpiperidin-1-yl)methyl)benzylamino)isoindoline-1,3-dione]	< 200 nM
O=C1CCC(N2C(=O)c3cccc(NCc4ccc(CN5CCC6(CCCO6)CC5)cc4)c3C2=O)C(=O)N1 (centres unmarked) [Cpd 90, 4-(4-(1-oxa-8-azaspiro[4.5]decan-8-ylmethyl)benzylamino)-2-(2,6-dioxopiperidin-3-yl)isoindoline-1,3-dione]	< 200 nM
CC(C)(C)C1CCN(Cc2ccc(CNc3cccc4c3C(=O)N(C3CCC(=O)NC3=O)C4=O)cc2F)CC1 (centres unmarked) [Cpd 92, 4-(4-((4-tert-butylpiperidin-1-yl)methyl)-3-fluorobenzylamino)-2-(2,6-dioxopiperidin-3-yl)isoindoline-1,3-dione]	< 200 nM
CC(C)(C)N1CCN(Cc2ccc(CNc3cccc4c3C(=O)N(C3CCC(=O)NC3=O)C4=O)c(F)c2)CC1 (centres unmarked) [Cpd 95, 4-(4-((4-tert-butylpiperazin-1-yl)methyl)-2-fluorobenzylamino)-2-(2,6-dioxopiperidin-3-yl)isoindoline-1,3-dione]	< 200 nM
NC(=O)c1ccc(N2CCN(Cc3ccc(CNc4cccc5c4C(=O)N(C4CCC(=O)NC4=O)C5=O)cc3F)CC2)cn1 (centres unmarked) [Cpd 98, 5-(4-(4-((2-(2,6-dioxopiperidin-3-yl)-1,3-dioxoisoindolin-4-ylamino)methyl)-2-fluorobenzyl)piperazin-1-yl)picolinamide]	< 200 nM
Cc1cc(CN2CCN(c3ccc(F)cc3F)CC2)ccc1CNc1cccc2c1C(=O)N(C1CCC(=O)NC1=O)C2=O (centres unmarked) [Cpd 101, 4-(4-((4-(2,4-difluorophenyl)piperazin-1-yl)methyl)-2-methylbenzylamino)-2-(2,6-dioxopiperidin-3-yl)isoindoline-1,3-dione]	200 to 500 nM
CC(C)C1CCN(Cc2ccc(CNc3cccc4c3C(=O)N(C3CCC(=O)NC3=O)C4=O)c(F)c2)CC1 (centres unmarked) [Cpd 103, 2-(2,6-dioxopiperidin-3-yl)-4-(2-fluoro-4-((4-isopropylpiperidin-1-yl)methyl)benzylamino)isoindoline-1,3-dione]	< 200 nM
